In patent US9629885B1, “Method for treating candidiasis” (KING SAUD UNIVERSITY, priority 2016, dated 2017):
Values after ≈ are worked out from the molar mass of the structure shown.

Tests used:
C. dubliniensis [1] = assay: Minimum inhibitory concentration, micro-dilution method; type: cell-based; settings: malt extract broth, 37° C., 24-48 h
Excerpt: (§1) The fungal strain was isolated from a soil sample collected from Al-Qassim region, Kingdom of Saudi Arabia (KSA). The malt extract agar (MEA) medium (malt extract, 20 g; peptone, 1 g; dextrose, 20 g; agar, 20 g; distilled water, 1 L) was used for isolation, cultivation, identification and production of fungal secondary metabolites of the fungal isolate and test Candida species. Ten clinically isolated Candida species; namely, Candida albicans, C. dubliniensis, C. famata, C. glabrata, C. inconspicua, C. kefyr, C. krusei, C. norvegensis, C. parapsilosis, and C. tropicalis were used as test microorganisms. The fungal isolate and the test organism were identified at the Microbiology Laboratory, Regional Center for Mycology and Biotechnology, Al-Azhar University, Cairo, Egypt.
(§2) The minimum inhibitory concentration (MIC) was determined for both total extract of Petriella setifera and the isolated compound by micro-dilution method using serially diluted (2 folds) according to Awaad et al. (2012). The MIC was determined by dilution of total extract and isolated compound of concentrations of 0.0-1000 μg/ml. Equal volume of each extract and malt extract broth were mixed in a test tube. Specifically, 0.1 ml of standardized inoculum (1-2×10^7 CFU/ml) was added in each tube. The tubes were incubated at 37° C. for 24-48 h. Two control tubes; tube containing the growth medium, saline and the inoculum, were maintained for each test batch. The lowest concentration (highest dilution) of the extract that produced no visible candidal growth (no turbidity) when compared with the control tubes were regarded as MIC.

C. glabrata [2] = assay: as above; type: cell-based; settings: malt extract broth, 37° C., 24-48 h
Excerpt: as §1, §2

C. krusei [3] = assay: as above; type: cell-based; settings: malt extract broth, 37° C., 24-48 h
Excerpt: as §1, §2

C. kefyr [4] = assay: as above; type: cell-based; settings: malt extract broth, 37° C., 24-48 h
Excerpt: as §1, §2

C. inconspicua [5] = assay: as above; type: cell-based; settings: malt extract broth, 37° C., 24-48 h
Excerpt: as §1, §2

C. parapsilosis [6] = assay: as above; type: cell-based; settings: malt extract broth, 37° C., 24-48 h
Excerpt: as §1, §2

C. norvegensis [7] = assay: as above; type: cell-based; settings: malt extract broth, 37° C., 24-48 h
Excerpt: as §1, §2

C. tropicalis [8] = assay: as above; type: cell-based; settings: malt extract broth, 37° C., 24-48 h
Excerpt: as §1, §2

C. famata [9] = assay: as above; type: cell-based; settings: malt extract broth, 37° C., 24-48 h
Excerpt: as §1, §2

Candida albicans [10] = assay: as above; type: cell-based; settings: C. albicans, malt extract broth, 37° C., 24-48 h
Excerpt: as §1, §2

C. dubliniensis [11] = assay: Anticandidal activity, well-diffusion method; type: cell-based; settings: 50 μl per 6 mm well, 100 mg/ml, 37° C., 24-48 h
Excerpt: as §1
(§3) Anticandidal activities of total alcoholic extract of Petriella setifera and the isolated compound (amnomopin) were determined using well-diffusion method according to Zain et al. (2012). Petri plates containing 20 ml of malt extract agar medium were seeded with 48 h cultures of candidal inoculums (1-2×10^7 Colony Forming Units [CFU/ml]). Wells (6 mm in diameter) were cut off into agar and 50 μl of extract and the isolated compound were tested in a concentration of 100 mg/ml and incubated at 37° C. for 24-48h. The assessment of anticandidal activity was based on measurement of the diameter of the inhibition zone formed around the well.

C. glabrata [12] = assay: Anticandidal activity, well-diffusion method; type: cell-based; settings: 50 μl per 6 mm well, 100 mg/ml, 37° C., 24-48 h
Excerpt: as §1, §3

C. krusei [13] = assay: Anticandidal activity, well-diffusion method; type: cell-based; settings: 50 μl per 6 mm well, 100 mg/ml, 37° C., 24-48 h
Excerpt: as §1, §3

C. kefyr [14] = assay: Anticandidal activity, well-diffusion method; type: cell-based; settings: 50 μl per 6 mm well, 100 mg/ml, 37° C., 24-48 h
Excerpt: as §1, §3

C. inconspicua [15] = assay: Anticandidal activity, well-diffusion method; type: cell-based; settings: 50 μl per 6 mm well, 100 mg/ml, 37° C., 24-48 h
Excerpt: as §1, §3

C. parapsilosis [16] = assay: Anticandidal activity, well-diffusion method; type: cell-based; settings: 50 μl per 6 mm well, 100 mg/ml, 37° C., 24-48 h
Excerpt: as §1, §3

C. norvegensis [17] = assay: Anticandidal activity, well-diffusion method; type: cell-based; settings: 50 μl per 6 mm well, 100 mg/ml, 37° C., 24-48 h
Excerpt: as §1, §3

C. tropicalis [18] = assay: Anticandidal activity, well-diffusion method; type: cell-based; settings: 50 μl per 6 mm well, 100 mg/ml, 37° C., 24-48 h
Excerpt: as §1, §3

C. famata [19] = assay: Anticandidal activity, well-diffusion method; type: cell-based; settings: 50 μl per 6 mm well, 100 mg/ml, 37° C., 24-48 h
Excerpt: as §1, §3

Candida albicans [20] = assay: Anticandidal activity, well-diffusion method; type: cell-based; settings: C. albicans, 50 μl per 6 mm well, 100 mg/ml, 37° C., 24-48 h
Excerpt: as §1, §3

Male Wister rats = assay: Sub-chronic toxicity test, liver and kidney functions; type: in vivo
Protocol: Male Wister rats (weighing about 150-180 g) were divided into 3 equal groups each of 10 rats. Rats of the first group received the vehicle in a dose of 5 mL/kg and left as normal control. Rats of the second and third groups were administered the alcoholic extract of the investigated fungi (500 mg/kg) and the isolated compound (50 mg/kg). All medications were administered orally daily for 15 consecutive days. Animals were maintained under identical conditions with food and water ad libitum for the entire period with close observation. At the end of the experimental period, blood samples were collected from the orbital plexus of rats, 6 h after the last dose. Samples were left to clot at room temperature for 20 min. The obtained sera were collected and used to determine the activity of (AST) aspirate aminotransferase and (ALT) alanine aminotransferase, levels of urea and creatinine were also estimated (Awaad et al. 2014).
The effect of the total alcohol extract of Petriella setifera and isolated compound (Amnomopin) on liver and kidney functions are provided in Table 2. Three groups of animals (n=10) were orally administered the total alcohol extracts (500 mg/kg) and the isolated compound (50 mg/kg) daily for 15 days, while the control group received water orally. After the treatment period, blood samples were collected, sera were separated and different parameters were measured as provided in Table 2. All values were expressed as mean±S.D.

[21] = rat serum, oral daily for 15 days, mean±S.D., n=10

For `C[C@@H]1[C@H](O)[C@@H](C)/C=C/C=C/C=C/C=C/C=C/C=C/C=C/[C@H](O[C@@H]2O[C@H](C)[C@@H](O)[C@H](N)[C@@H]2O)C[C@@H]2O[C@](O)(C[C@@H](O)C[C@@H](O)[C@H](O)CC[C@@H](O)C[C@@H](O)CC(=O)O[C@H]1C)C[C@H](O)[C@H]2C(=O)O` [Amphotericin B, reference compound], the “Minimum Inhibitory Concentration (MIC)” value (C. dubliniensis [1]) was 00.49 µg/mL, the “Minimum Inhibitory Concentration (MIC)” value (C. glabrata [2]) was 03.90 µg/mL and the “Minimum Inhibitory Concentration (MIC)” value (C. krusei [3]) was 00.98 µg/mL. For the same molecule, the “Minimum Inhibitory Concentration (MIC)” value (C. kefyr [4]) was 00.49 µg/mL, the “Minimum Inhibitory Concentration (MIC)” value (C. inconspicua [5]) was 00.98 µg/mL and the “Minimum Inhibitory Concentration (MIC)” value (C. parapsilosis [6]) was 00.49 µg/mL. The “Minimum Inhibitory Concentration (MIC)” value (C. norvegensis [7]) was 00.49 µg/mL, the “Minimum Inhibitory Concentration (MIC)” value (C. tropicalis [8]) was 03.90 µg/mL and the “Minimum Inhibitory Concentration (MIC)” value (C. famata [9]) was 03.90 µg/mL. The “Minimum Inhibitory Concentration (MIC)” value (Candida albicans [10]) was 00.49 µg/mL, the “Diameter of inhibition zone” value (C. dubliniensis [11]) was 24.1 ± 1.20 mm and the “Diameter of inhibition zone” value (C. glabrata [12]) was 19.3 ± 2.10 mm. The “Diameter of inhibition zone” value (C. krusei [13]) was 23.7 ± 0.63 mm, the “Diameter of inhibition zone” value (C. kefyr [14]) was 26.3 ± 1.20 mm and the “Diameter of inhibition zone” value (C. kefyr [14]; listed as amphotericin B) was 26.3±1.20 mm. The “Diameter of inhibition zone” value (C. inconspicua [15]) was 21.9 ± 1.20 mm, the “Diameter of inhibition zone” value (C. parapsilosis [16]) was 32.4 ± 0.58 mm and the “Diameter of inhibition zone” value (C. norvegensis [17]) was 28.7 ± 0.72 mm. For the same molecule, the “Diameter of inhibition zone” value (C. tropicalis [18]) was 19.6 ± 1.50 mm, the “Diameter of inhibition zone” value (C. famata [19]) was 20.4 ± 0.63 mm and the “Diameter of inhibition zone” value (Candida albicans [20]) was 26.3 ± 1.20 mm.
`CC1(C)CCC2(C(=O)O)CCC3(C)C(CCC4C5(C)CCC(O[C@@H]6OC(CO)[C@@H](O)C(O)C6O[C@@H]6OC(CO)[C@@H](O)C(O)C6O)C(C)(C)C5=CCC43C)C2C1` (stereo partly drawn) [Amnomopin, 3β-diglucoside-5, 12-28-oic acid] showed an MIC (C. dubliniensis [1]; Candida dubliniensis) of 62.5 µg/mL (≈ 80 µM), an MIC (C. glabrata [2]; Nakaseomyces glabratus) of 62.5 µg/mL (≈ 80 µM) and an MIC (C. krusei [3]; Pichia kudriavzevii) of 1.95 µg/mL (≈ 2.5 µM). The MIC (C. kefyr [4]; Kluyveromyces marxianus) was 0.49 µg/mL (≈ 0.627 µM), the “Minimum Inhibitory Concentration (MIC)” value (C. kefyr [4]) was 00.98 µg/mL and the MIC (C. inconspicua [5]; Pichia inconspicua) was 32.2 µg/mL (≈ 41.3 µM). For the same molecule, the MIC (C. parapsilosis [6]; Lodderomyces parapsilosis) was 32.2 µg/mL (≈ 41.3 µM), the MIC (C. norvegensis [7]; Pichia norvegensis) was 0.98 µg/mL (≈ 1.25 µM) and the “Minimum Inhibitory Concentration (MIC)” value (C. norvegensis [7]) was 01.95 µg/mL. For the same molecule, the MIC (C. tropicalis [8]; Candida tropicalis) was 7.81 µg/mL (≈ 10 µM), the MIC (C. famata [9]; Debaryomyces hansenii) was 3.9 µg/mL (≈ 4.99 µM) and the “Minimum Inhibitory Concentration (MIC)” value (Candida albicans [10]) was 01.95 µg/mL. For the same molecule, the “Minimum Inhibitory Concentration (MIC)” value (Candida albicans [10]; listed as amnomopin) was 00.49 µg/mL, the zone of inhibition at 100000 µg/mL (C. dubliniensis [11]; Candida dubliniensis, read-out: Diameter of inhibition zone) was 16.2 ± 0.63 mm and the zone of inhibition at 100000 µg/mL (C. glabrata [12]; Nakaseomyces glabratus, read-out: Diameter of inhibition zone) was 16.3 ± 0.63 mm. For the same molecule, the zone of inhibition at 100000 µg/mL (C. krusei [13]; Pichia kudriavzevii, read-out: Diameter of inhibition zone) was 20.9 ± 0.58 mm, the “Diameter of inhibition zone” value (C. kefyr [14]) was 24.2 ± 2.10 mm and the zone of inhibition at 100000 µg/mL (C. kefyr [14]; Kluyveromyces marxianus, read-out: Diameter of inhibition zone) was 24.2 ± 2.1 mm. The zone of inhibition at 100000 µg/mL (C. inconspicua [15]; Pichia inconspicua, read-out: Diameter of inhibition zone) was 18.3 ± 2.1 mm, the zone of inhibition at 100000 µg/mL (C. parapsilosis [16]; Lodderomyces parapsilosis, read-out: Diameter of inhibition zone) was 18.4 ± 0.72 mm and the “Diameter of inhibition zone” value (C. norvegensis [17]) was 22.1 ± 1.20 mm. The zone of inhibition at 100000 µg/mL (C. norvegensis [17]; Pichia norvegensis, read-out: Diameter of inhibition zone) was 22.1 ± 1.2 mm, the zone of inhibition at 100000 µg/mL (C. tropicalis [18]; Candida tropicalis, read-out: Diameter of inhibition zone) was 19.4 ± 1.2 mm and the zone of inhibition at 100000 µg/mL (C. famata [19]; Debaryomyces hansenii, read-out: Diameter of inhibition zone) was 20.1 ± 1.5 mm. The “Diameter of inhibition zone” value (Candida albicans [20]) was 23.1 ± 2.10 mm, the zone of inhibition at 100000 µg/mL (Candida albicans [20]; Candida albicans, read-out: Diameter of inhibition zone) was 23.1 ± 2.1 mm and the “Kidney function Blood urea” value (Male Wister rats; [21]) was 30.85 ± 1.83 mg/dL. For the same molecule, the “Kidney function Serum Creatinine” value (Male Wister rats; [21]) was 0.38 ± 0.02 mg/dL, the “Liver function ALT” value (Male Wister rats; [21]) was 146.30 ± 4.30 U/l and the “Liver function AST” value (Male Wister rats; [21]) was 66.72 ± 2.82 U/l. The “effect on the activity of ALT, AST and the levels of blood urea and serum creatinine” value (Male Wister rats; rats, oral dosing for 15 days, extract 500 mg/kg, compound 50 mg/kg) was “did not show any significant effect”.
